This experiment addresses T1, Neuropeptide Y receptor type 5 (Homo sapiens, UniProt Q15761).
T1 sequence (Q15761 whole entry): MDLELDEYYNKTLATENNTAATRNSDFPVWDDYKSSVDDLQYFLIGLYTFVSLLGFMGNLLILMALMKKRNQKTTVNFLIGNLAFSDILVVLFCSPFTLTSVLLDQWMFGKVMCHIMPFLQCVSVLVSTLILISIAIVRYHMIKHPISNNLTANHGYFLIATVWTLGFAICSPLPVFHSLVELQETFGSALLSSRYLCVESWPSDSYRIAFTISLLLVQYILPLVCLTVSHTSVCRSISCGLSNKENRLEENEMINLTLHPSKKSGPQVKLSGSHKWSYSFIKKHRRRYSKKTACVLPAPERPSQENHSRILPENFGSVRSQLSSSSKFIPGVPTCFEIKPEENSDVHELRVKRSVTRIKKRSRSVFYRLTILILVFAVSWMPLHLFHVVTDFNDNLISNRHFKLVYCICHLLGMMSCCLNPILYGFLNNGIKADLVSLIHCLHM
The experiment in a line: Concentration that inhibited 50% of binding of 125 I -PYY ligand to human Neuropeptide Y receptor type 5. The class given is single protein.

Take `Cc1[nH]c(-c2ccccc2)nc1-c1cccnc1` [FR-79620]: the IC50 came out at 427 nM.
`c1ccc(-c2nc3c([nH]2)CCOc2ccccc2-3)cc1` gave an IC50 of 6100 nM.
Consider `COc1ccc2c(c1)-c1nc(-c3ccccn3)[nH]c1CCC2`, for which the IC50 was determined as 110 nM.
The value for `c1ccc(-c2nc3c([nH]2)-c2ccccc2CCC3)nc1` was 110 nM; that for `c1ccc2c(c1)CCCc1[nH]c(-c3c[nH]cn3)nc1-2` was 570 nM.
`COc1ccc2c(c1)-c1nc(-c3ccccc3)[nH]c1CC2` returned an IC50 of 52 nM.
The value for `Fc1ccc2c(c1)-c1nc(-c3cccnc3)[nH]c1CCC2` was 6.4 nM.

As a reminder, the IC50 is the concentration needed to halve the response being measured. The low end stands for greater potency, the high end for weaker potency.

The values are drawn from ChEMBL document CHEMBL1135260 (Bioorg Med Chem Lett, 2002).
